Toxic doses and inconclusive results are not listed. No stated cut-off is given here; in the data, active means T/C of 150% or more; inactive means T/C below 125%.
System: L1210 leukemia ip in BDF1 mice, survival T/C
Assay: NCI In Vivo Anticancer Drug Screen. Data for tumor model L1210 Leukemia (intraperitoneal) in B6D2F1 (BDF1) mice
Details: endpoint: mean survival time, higher = longer survival
Outline: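 Transplanted-tumor mice were given test agent; controls received vehicle only. Survival readings from the two groups were divided (treated over control).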

[1] = dose: 100.0 mg/kg/injection, schedule: Q01DX001 (ip), vehicle: Klucel (hydroxypropylcellulose) (HPC)
[2] = dose: 200.0 mg/kg/injection, schedule: Q01DX001 (ip), vehicle: Klucel (hydroxypropylcellulose) (HPC)
[3] = dose: 400.0 mg/kg/injection, schedule: Q01DX001 (ip), vehicle: Klucel (hydroxypropylcellulose) (HPC)
[4] = dose: 100.0 mg/kg/injection, schedule: Q01DX009 (ip), vehicle: saline with Tween-80
[5] = dose: 100.0 mg/kg/injection, schedule: Q04DX003 (ip), vehicle: saline with Tween-80
[6] = dose: 200.0 mg/kg/injection, schedule: Q01DX009 (ip), vehicle: saline with Tween-80
[7] = dose: 200.0 mg/kg/injection, schedule: Q04DX003 (ip), vehicle: saline with Tween-80
[8] = dose: 400.0 mg/kg/injection, schedule: Q01DX009 (ip), vehicle: saline with Tween-80
[9] = dose: 400.0 mg/kg/injection, schedule: Q04DX003 (ip), vehicle: saline with Tween-80
[10] = dose: 100.0 mg/kg/injection, schedule: Q01DX009 (ip), vehicle: Klucel (hydroxypropylcellulose) (HPC)
[11] = dose: 200.0 mg/kg/injection, schedule: Q01DX009 (ip), vehicle: Klucel (hydroxypropylcellulose) (HPC)
[12] = dose: 100.0 mg/kg/injection, schedule: Q01DX001 (ip), vehicle: saline
[13] = dose: 200.0 mg/kg/injection, schedule: Q01DX001 (ip), vehicle: saline
[14] = dose: 100.0 mg/kg/injection, schedule: Q04DX003 (ip), vehicle: Klucel (hydroxypropylcellulose) (HPC)
[15] = dose: 200.0 mg/kg/injection, schedule: Q04DX003 (ip), vehicle: Klucel (hydroxypropylcellulose) (HPC)
[16] = dose: 400.0 mg/kg/injection, schedule: Q04DX003 (ip), vehicle: Klucel (hydroxypropylcellulose) (HPC)

Measured: T/C

O=c1c2[nH]cnc2ncn1Cc1ccccc1
inactive: [1] 102 % of control | [2] 98 % of control | [3] 109 % of control

CCCC1c2ccccc2-c2ccc(C(C)=O)cc21 (stereo not drawn)
inactive: dose: 100.0 mg/kg/injection, schedule: Q01DX001 (ip), vehicle: carboxymethylcellulose (CMC) 97 % of control | dose: 200.0 mg/kg/injection, schedule: Q01DX001 (ip), vehicle: carboxymethylcellulose (CMC) 92 % of control | dose: 400.0 mg/kg/injection, schedule: Q01DX001 (ip), vehicle: carboxymethylcellulose (CMC) 97 % of control

CC1(CC(O)(C(F)(F)F)C(F)(F)F)NC(=O)NC1=O (stereo not drawn)
inactive: [4] 97 % of control | [5] 93 % of control | [6] 99 % of control | [7] 96 % of control | [8] 99 % of control | [9] 91 % of control

Nc1cccc(OCCCCCOc2cccc(N)c2)c1
inactive: [10] 93 % of control | [11] 96 % of control

CCCCCCCCCCCCCCNCCC(=O)O
inactive: dose: 37.5 mg/kg/injection, schedule: Q04DX003 (ip), vehicle: saline 102 % of control | dose: 75.0 mg/kg/injection, schedule: Q04DX003 (ip), vehicle: saline 101 % of control | dose: 150.0 mg/kg/injection, schedule: Q04DX003 (ip), vehicle: saline 102 % of control

CN1C(=O)NC(=O)C12CCNCC2
inactive: [12] 97 % of control | [13] 103 % of control | dose: 400.0 mg/kg/injection, schedule: Q01DX001 (ip), vehicle: saline 101 % of control

O=C(CCN1CC1)NCCCCCCNC(=O)CCN1CC1
inactive: [14] 92 % of control | [15] 90 % of control | [16] 86 % of control

CCc1[nH]c(=S)nc(-c2ccccc2)c1-c1ccc([N+](=O)[O-])cc1O
inactive: [14] 95 % of control | [15] 100 % of control | [16] 95 % of control

COc1ccc2c(c1)CN(S(=O)(=O)c1ccc(C)cc1)CCC2=O
inactive: dose: 100.0 mg/kg/injection, schedule: Q01DX009 (ip), vehicle: saline 102 % of control | dose: 200.0 mg/kg/injection, schedule: Q01DX009 (ip), vehicle: saline 98 % of control | dose: 400.0 mg/kg/injection, schedule: Q01DX009 (ip), vehicle: saline 95 % of control

CCCCCCCCCCCC(=O)NC(=S)Nc1cccc2ccccc12
inactive: [14] 90 % of control | [15] 97 % of control

CCOC(=O)CCc1c[nH]c(C)c1C(=O)C(=O)OCC
inactive: [1] 95 % of control | [14] 93 % of control | [2] 98 % of control | [15] 102 % of control | [3] 95 % of control | [16] 96 % of control

CCOC(=O)C(=CN1CCOCC1)C(=O)OCC
inactive: [4] 100 % of control | [5] 120 % of control | [6] 100 % of control | [7] 102 % of control | [8] 100 % of control | [9] 98 % of control

O=C(CC1(O)C(=O)Nc2ccccc21)C12CC3CC(CC(C3)C1)C2 (stereo not drawn)
inactive: dose: 50.0 mg/kg/injection, schedule: Q01DX009 (ip), vehicle: saline with Tween-80 104 % of control | [4] 101 % of control | [6] 96 % of control

O=C(O)/C=N/OCc1cc2c(cc1Cl)OCO2
inactive: dose: 100.0 mg/kg/injection, schedule: Q04DX003 (ip), vehicle: saline sonified 95 % of control | dose: 200.0 mg/kg/injection, schedule: Q04DX003 (ip), vehicle: saline sonified 92 % of control | dose: 400.0 mg/kg/injection, schedule: Q04DX003 (ip), vehicle: saline sonified 94 % of control

CCOC(=O)C1CCc2c(ccc3ccccc23)N1C(C)=O (stereo not drawn)
inactive: [10] 94 % of control | [11] 88 % of control | dose: 400.0 mg/kg/injection, schedule: Q01DX009 (ip), vehicle: Klucel (hydroxypropylcellulose) (HPC) 91 % of control

Cc1ccc(NS(=O)(=O)c2ccc([N+](=O)[O-])cc2)c(C)c1
inactive: [4] 98 % of control | [5] 88 % of control | [6] 101 % of control | [7] 89 % of control | [8] 98 % of control | [9] 86 % of control

Cc1cccc(C)c1N(C=O)N=O
inactive: [12] 110 % of control | [13] 104 % of control

COC(=O)C(Cc1c[nH]c2ccccc12)NC(=O)CNC(=O)OCc1ccccc1 (stereo not drawn)
inactive: dose: 100.0 mg/kg/injection, schedule: Q04DX003 (ip), vehicle: other 98 % of control | dose: 200.0 mg/kg/injection, schedule: Q04DX003 (ip), vehicle: other 102 % of control | dose: 400.0 mg/kg/injection, schedule: Q04DX003 (ip), vehicle: other 98 % of control
